Data on 12 molecules can be found in US20140135310A1, “SULPHONAMIDE DERIVATIVES OF ALICYCLIC AMINES FOR THE TREATMENT OF CENTRAL NERVOUS SYSTEM DISEASES” (Adamed Sp. z o.o., priority 2011, published 2014).

Molecules are shown by their SMILES.

Assay [1] deals with T1, 5-HT6 receptor (Homo sapiens, UniProt P50406).
T1 construct: purchased PerkinElmer
In words: Radioligand binding assay, serotoninergic 5-HT6 receptors.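 Also: test compound at 1 µM.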 As to conditions: binding assay result in %, Table 5a. The essentials: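 Values are Ki from Cheng–Prusoff, taking IC50 from Hill nonlinear regression of competition curves and KD from a Scatchard plot. Specific binding was total minus binding with excess unlabelled ligand. Radioligand displacement was detected by scintillation counting, and data were also reported as percent of control specific binding.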

In assay [2] the target is dopaminergic receptors D3 (Homo sapiens, UniProt P35462). Put plainly: Radioligand binding assay, dopaminergic D3 receptors. As to conditions: test compound 1×10^−6 M. The essentials: (§1)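 Competition radioligand binding at human D2, D3 and D4.4 receptors, detected by scintillation counting; nonspecific binding defined with excess unlabelled ligand. Results as percent inhibition of control specific binding; IC50 by Hill-equation nonlinear regression; Ki via Cheng-Prusoff, with radioligand KD from Scatchard plot.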
dopaminergic receptors D3, sequence (P35462 whole entry): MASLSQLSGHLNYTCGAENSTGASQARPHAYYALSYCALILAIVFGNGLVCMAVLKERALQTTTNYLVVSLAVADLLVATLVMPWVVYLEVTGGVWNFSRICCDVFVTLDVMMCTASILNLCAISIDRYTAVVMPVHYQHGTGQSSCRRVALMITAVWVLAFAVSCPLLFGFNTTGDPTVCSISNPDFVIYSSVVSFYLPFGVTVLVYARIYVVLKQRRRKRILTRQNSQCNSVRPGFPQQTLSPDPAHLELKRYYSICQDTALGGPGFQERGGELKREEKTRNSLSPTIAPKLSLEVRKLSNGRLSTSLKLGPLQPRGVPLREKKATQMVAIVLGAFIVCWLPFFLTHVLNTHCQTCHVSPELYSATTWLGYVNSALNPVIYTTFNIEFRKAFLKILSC

In assay [3] the test system is α1 adrenergic receptors (rat cerebral cortex). In words: Radioligand binding assay, adrenergic α1 receptors. The following applies: test compound 1×10^−6 M. The essentials: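 Values derive from radioligand displacement, with non-specific binding defined by excess cold ligand and detection by scintillation. Hill-fit IC50s were converted to Ki via Cheng-Prusoff using Scatchard-derived Kd; percent inhibition of control specific binding also reported.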

Assay [4] concerns the target dopaminergic receptors D2 (Homo sapiens, UniProt P14416). Put plainly: Radioligand binding assay, dopaminergic D2 receptors. As to conditions: binding assay, test compound 1×10^−6 M. The method, boiled down:
as §1

The target of assay [5] is T2, 5-HT7 receptor (Homo sapiens, UniProt P34969).
T2 construct: purchased PerkinElmer
T2 sequence (P34969 whole entry): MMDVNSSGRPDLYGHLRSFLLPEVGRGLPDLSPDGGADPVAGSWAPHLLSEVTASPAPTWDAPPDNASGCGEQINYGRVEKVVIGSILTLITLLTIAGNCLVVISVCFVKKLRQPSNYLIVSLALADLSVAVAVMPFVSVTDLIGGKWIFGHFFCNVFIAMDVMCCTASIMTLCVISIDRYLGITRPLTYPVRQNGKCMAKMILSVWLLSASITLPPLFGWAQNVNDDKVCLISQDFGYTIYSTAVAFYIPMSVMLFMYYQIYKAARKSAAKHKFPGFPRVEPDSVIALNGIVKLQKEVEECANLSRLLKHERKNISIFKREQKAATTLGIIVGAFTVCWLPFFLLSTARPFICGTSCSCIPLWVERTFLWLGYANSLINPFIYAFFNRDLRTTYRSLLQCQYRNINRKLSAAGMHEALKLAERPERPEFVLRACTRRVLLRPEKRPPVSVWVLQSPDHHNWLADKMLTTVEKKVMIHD
In words: Radioligand binding assay, serotoninergic 5-HT7 receptors.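 Also: test compound at 1 µM.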 The following applies: binding assay result in %, Table 5a. The method, boiled down: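 Competition binding at human 5-HT7 receptors with a radioligand, detected by scintillation counting; non-specific binding was defined with excess unlabelled ligand. IC50 came from Hill-equation fits of competition curves, and Ki from Cheng–Prusoff using radioligand concentration and Scatchard-derived KD.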

Assay [6] deals with T3, 5-HT2A receptor (Homo sapiens, UniProt P28223).
T3 construct: purchased PerkinElmer
T3 sequence (P28223 whole entry): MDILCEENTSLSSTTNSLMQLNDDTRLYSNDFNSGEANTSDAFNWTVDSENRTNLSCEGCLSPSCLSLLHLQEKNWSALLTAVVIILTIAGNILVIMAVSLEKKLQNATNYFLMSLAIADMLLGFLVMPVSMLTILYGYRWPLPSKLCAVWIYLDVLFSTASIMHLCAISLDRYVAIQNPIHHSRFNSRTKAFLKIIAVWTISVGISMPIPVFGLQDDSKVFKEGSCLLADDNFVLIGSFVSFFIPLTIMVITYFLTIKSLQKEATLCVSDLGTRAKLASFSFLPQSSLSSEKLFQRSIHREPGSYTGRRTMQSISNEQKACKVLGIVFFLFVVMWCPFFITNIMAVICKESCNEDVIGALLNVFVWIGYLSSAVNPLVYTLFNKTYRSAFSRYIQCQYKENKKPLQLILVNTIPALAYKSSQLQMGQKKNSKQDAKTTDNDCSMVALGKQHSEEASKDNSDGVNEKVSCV
In words: Radioligand binding assay, serotoninergic 5-HT2A receptors. As to conditions: binding assay result in %, Table 5a. The method, boiled down: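 Radioligand competition binding with scintillation counting; nonspecific binding defined by excess unlabelled ligand. Data as percent inhibition of control specific binding. IC50 by Hill-equation fit of competition curves; Ki by Cheng-Prusoff, with radioligand Kd from Scatchard plot.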

For assay [7], the target named is T4, serotonin transporter (SERT) (Homo sapiens, UniProt P31645).
T4 construct: expressed in transfected cells; host or cells: CHO cells
T4 sequence (P31645 whole entry): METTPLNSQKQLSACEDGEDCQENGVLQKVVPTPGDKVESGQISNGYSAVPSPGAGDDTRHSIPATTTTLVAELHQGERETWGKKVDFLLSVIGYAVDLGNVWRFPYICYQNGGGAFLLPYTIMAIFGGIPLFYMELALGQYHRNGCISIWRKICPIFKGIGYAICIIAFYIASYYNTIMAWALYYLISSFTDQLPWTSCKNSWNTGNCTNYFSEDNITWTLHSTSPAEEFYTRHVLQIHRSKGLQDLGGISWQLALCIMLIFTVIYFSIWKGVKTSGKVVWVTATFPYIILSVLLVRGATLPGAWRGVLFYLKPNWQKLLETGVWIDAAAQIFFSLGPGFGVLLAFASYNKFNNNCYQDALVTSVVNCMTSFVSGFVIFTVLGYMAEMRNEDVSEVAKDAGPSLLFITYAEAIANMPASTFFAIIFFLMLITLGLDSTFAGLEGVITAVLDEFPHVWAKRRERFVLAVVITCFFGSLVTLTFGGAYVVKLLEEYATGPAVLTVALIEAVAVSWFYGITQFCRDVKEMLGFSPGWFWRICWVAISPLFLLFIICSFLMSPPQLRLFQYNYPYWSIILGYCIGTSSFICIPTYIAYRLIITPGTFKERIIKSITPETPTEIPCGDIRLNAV
In words: Radioligand binding assay, serotonin transporter (SERT). The following applies: binding assay, test compound 1×10^−6 M. The essentials: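 Radioligand competition binding with scintillation detection; specific binding is total minus binding under excess unlabelled ligand. Reported as % of control specific binding or % inhibition; IC50 from Hill-equation non-linear regression of competition curves, and Ki via Cheng-Prusoff using radioligand concentration and Scatchard-derived KD.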

The target of assay [8] is T5, 5-HT1A receptor (rat hippocampus) (Rattus norvegicus, UniProt P19327).
T5 construct: hippocampus; from tissue; host or cells: rat hippocampus
T5 sequence (P19327 1-422): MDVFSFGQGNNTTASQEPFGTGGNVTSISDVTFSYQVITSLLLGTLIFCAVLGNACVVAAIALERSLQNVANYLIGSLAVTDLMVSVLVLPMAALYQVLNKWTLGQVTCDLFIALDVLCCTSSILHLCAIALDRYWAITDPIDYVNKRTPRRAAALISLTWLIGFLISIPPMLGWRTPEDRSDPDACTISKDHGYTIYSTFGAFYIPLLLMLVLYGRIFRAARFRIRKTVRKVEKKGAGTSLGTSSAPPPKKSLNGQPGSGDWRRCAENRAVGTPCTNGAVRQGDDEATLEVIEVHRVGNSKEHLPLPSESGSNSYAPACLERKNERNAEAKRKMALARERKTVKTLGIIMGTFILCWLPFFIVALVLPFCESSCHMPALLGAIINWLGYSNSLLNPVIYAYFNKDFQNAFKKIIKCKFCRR
Put plainly: Radioligand binding assay, serotoninergic 5-HT1A receptors.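 Also: test compound at 1 µM.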 The following applies: binding assay result in %, Table 5a.

dopaminergic receptors D2, sequence (P14416 whole entry): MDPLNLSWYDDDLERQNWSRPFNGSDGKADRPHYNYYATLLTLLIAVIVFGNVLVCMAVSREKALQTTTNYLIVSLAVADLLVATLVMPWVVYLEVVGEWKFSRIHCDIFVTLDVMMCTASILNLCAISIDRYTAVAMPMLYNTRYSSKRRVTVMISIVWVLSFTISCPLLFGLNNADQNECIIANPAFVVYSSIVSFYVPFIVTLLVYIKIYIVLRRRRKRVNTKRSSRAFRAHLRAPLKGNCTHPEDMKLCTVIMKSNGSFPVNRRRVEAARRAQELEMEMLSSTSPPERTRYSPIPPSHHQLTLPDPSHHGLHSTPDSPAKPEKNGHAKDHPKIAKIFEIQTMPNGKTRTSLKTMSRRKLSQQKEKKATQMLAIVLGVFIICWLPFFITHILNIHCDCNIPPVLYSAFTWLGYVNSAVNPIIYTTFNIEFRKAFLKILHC
T1 sequence (P50406 whole entry): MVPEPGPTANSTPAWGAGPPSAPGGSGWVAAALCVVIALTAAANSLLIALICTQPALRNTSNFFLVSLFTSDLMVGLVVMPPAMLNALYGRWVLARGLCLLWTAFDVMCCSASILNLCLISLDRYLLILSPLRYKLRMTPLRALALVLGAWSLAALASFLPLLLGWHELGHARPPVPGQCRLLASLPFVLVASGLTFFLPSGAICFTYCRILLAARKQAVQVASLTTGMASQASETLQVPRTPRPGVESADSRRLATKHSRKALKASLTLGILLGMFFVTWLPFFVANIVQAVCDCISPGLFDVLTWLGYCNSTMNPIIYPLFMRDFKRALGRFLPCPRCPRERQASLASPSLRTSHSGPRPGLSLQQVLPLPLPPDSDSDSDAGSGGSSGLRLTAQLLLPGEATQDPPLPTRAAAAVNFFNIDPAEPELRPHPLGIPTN

One may read the inhibition as the relative decrease from the control value, in per cent. In the case of `O=S(=O)(NCC1CCN(CCOc2cccc3ccccc23)C1)c1cc2ccccc2s1` (stereo not drawn) [Compound 268, N-[[1-[2-(1-Naphthyloxy)ethyl]pyrrolidin-3-yl]methyl]benzothiophene-2-sulphonamide], the inhibition at 1 µM in assay [1] is 84%; in assay [2] it was 93%; in assay [4], 54%; in assay [5] it was 88%; in assay [6], 82%; in assay [7], 85%. Besides, in assay [8], the inhibition at 1 µM stood at 77%. In addition, the “α1 [%]” value in assay [3] is 9%.
With `O=S(=O)(NCC1CCN(CCOc2cccc3ccccc23)C1)c1cc2ccc(Cl)cc2s1` (stereo not drawn) [Compound 269, 6-Chloro-N-[[1-[2-(1-naphthyloxy)ethyl]pyrrolidin-3-yl]methyl]-benzothiophene-2-sulphonamide], the inhibition at 1 µM is 82% in assay [1]; 89% in assay [2]; 38% in assay [4]; 98% in assay [5]; 91% in assay [6]; 53% in assay [7]. Further, in assay [8], the inhibition at 1 µM is 60%. Besides, in assay [3], the “α1 [%]” value is recorded as −1%.
For the molecule `O=S(=O)(NCC1CCN(CCOc2cccc3ccccc23)C1)c1ccc2cc(Cl)ccc2c1` (stereo not drawn) [Compound 270, 6-Chloro-N-[[1-[2-(1-naphthyloxy)ethyl]pyrrolidin-3-yl]methyl]naphthalene-2-sulphonamide], the inhibition at 1 µM in assay [1] was found to be 86%; in assay [2], 91%; in assay [4], 32%; in assay [5], 94%; in assay [6], 86%; in assay [7], 15%. Also, in assay [8], the inhibition at 1 µM is 47%. Besides, the “α1 [%]” value in assay [3] was −5%.
On to `Cc1c(S(=O)(=O)NCC2CCN(CCOc3cccc4ccccc34)C2)sc2ccc(F)cc12` (stereo not drawn) [Compound 271, 5-Fluoro-3-methyl-N-[[1-[2-(1-naphthyloxy)ethyl]pyrrolidin-3-yl]methyl]benzothiophene-2-sulphonamide], for which the inhibition at 1 µM turned out to be 76% in assay [1]; 93% in assay [2]; 45% in assay [4]; 104% in assay [5]; 97% in assay [6]; 40% in assay [7]. In addition, in assay [8], the inhibition at 1 µM came out at 82%. Moreover, the “α1 [%]” value in assay [3] was −1%.
As to `Cc1c(S(=O)(=O)NCC2CCN(CCOc3cccc4ccccc34)C2)sc2ccc(Cl)cc12` (stereo not drawn) [Compound 272, 5-Chloro-3-methyl-N-[[1-[2-(1-naphthyloxy)ethyl]pyrrolidin-3-yl]methyl]benzothiophene-2-sulphonamide], the inhibition at 1 µM in assay [1] is 67%; in assay [2], 88%; in assay [4], 40%; in assay [5] it was 88%; in assay [6] it was 82%; in assay [7], 20%. The inhibition at 1 µM in assay [8] amounted to 63%. The “α1 [%]” value in assay [3] is given as −7%.
On to `O=S(=O)(NCC1CCN(CCOc2cccc3ccccc23)C1)c1cccc2ccccc12` (stereo not drawn) [Compound 273, N-[[1-[2-(1-Naphthyloxy)ethyl]pyrrolidin-3-yl]methyl]naphthalene-1-sulphonamide], for which the inhibition at 1 µM in assay [1] is 90%; in assay [2], 90%; in assay [4] it was 58%; in assay [5], 77%; in assay [6] it was 95%; in assay [7] it was 64%. The inhibition at 1 µM in assay [8] came to 85%. Moreover, in assay [3], the “α1 [%]” value worked out at 25%.
For the molecule `Cn1ccc2cc(S(=O)(=O)NCC3CCN(CCOc4cccc5ccccc45)C3)ccc21` (stereo not drawn) [Compound 274, 1-Methyl-N-[[1-[2-(1-naphthyloxy)ethyl]pyrrolidin-3-yl]methyl]indole-5-sulphonamide], the inhibition at 1 µM in assay [1] came out at 97%; in assay [2], 81%; in assay [4], 62%; in assay [5], 86%; in assay [6] it was 89%; in assay [7] it was 109%. In addition, the inhibition at 1 µM in assay [8] is 77%. Besides, in assay [3], the “α1 [%]” value was found to be 41%.
Take `Cn1ccc2c(S(=O)(=O)NCC3CCN(CCOc4cccc5ccccc45)C3)cccc21` (stereo not drawn) [Compound 275, 1-Methyl-N-[[1-[2-(1-naphthyloxy)ethyl]pyrrolidin-3-yl]methyl]indole-4-sulphonamide]: the inhibition at 1 µM in assay [1] was found to be 84%; in assay [2] it was 94%; in assay [4] it was 66%; in assay [5], 111%; in assay [6] it was 91%; in assay [7], 93%. In addition, the inhibition at 1 µM in assay [8] was 86%. Further, in assay [3], the “α1 [%]” value is on record as 53%.
For the molecule `O=S(=O)(NCC1CCN(CCOc2cccc3ccccc23)C1)c1csc2ccccc12` (stereo not drawn) [Compound 276, N-[[1-[2-(1-Naphthyloxy)ethyl]pyrrolidin-3-yl]methyl]benzothiophene-3-sulphonamide], the inhibition at 1 µM was 84% in assay [1]; 91% in assay [2]; 41% in assay [4]; 82% in assay [5]; 92% in assay [6]; 84% in assay [7]. Moreover, the inhibition at 1 µM in assay [8] was determined as 81%. In addition, the “α1 [%]” value in assay [3] stood at 16%.
With `O=S(=O)(NCC1CCN(CCOc2cccc3ccccc23)C1)c1ccc(F)c(Cl)c1` (stereo not drawn) [Compound 277, 3-Chloro-4-fluoro-N-[[1-[2-(1-naphthyloxy)ethyl]pyrrolidin-3-yl]methyl]benzenesulphonamide], the inhibition at 1 µM in assay [1] was 93%; in assay [2], 90%; in assay [4] it was 34%; in assay [5], 108%; in assay [6] it was 85%; in assay [7] it was 68%. For the same molecule, in assay [8], the inhibition at 1 µM was determined as 85%. For the same molecule, the “α1 [%]” value in assay [3] was 21%.
For `O=S(=O)(NCC1CCN(CCOc2cccc3ccccc23)C1)c1ccc(F)c(F)c1` (stereo not drawn) [Compound 278, 3,4-Difluoro-N-[[1-[2-(1-naphthyloxy)ethyl]pyrrolidin-3-yl]methyl]benzenesulphonamide], the inhibition at 1 µM came to 85% in assay [1]; 94% in assay [2]; 31% in assay [4]; 102% in assay [5]; 91% in assay [6]; 91% in assay [7]. For the same molecule, the inhibition at 1 µM in assay [8] came to 84%. Moreover, the “α1 [%]” value in assay [3] is recorded as 37%.
With `O=S(=O)(NCC1CCN(CCOc2cccc3c2OCCO3)C1)c1ccc2scnc2c1` (stereo not drawn) [Compound 285, N-[[1-[2-(2,3-Dihydro-1,4-benzodioxin-5-yloxy)ethyl]pyrrolidin-3-yl]methyl]-1,3-benzothiazole-5-sulphonamide], the inhibition at 1 µM in assay [1] amounted to 34%; in assay [2], 18%; in assay [4], 24%; in assay [5], 86%; in assay [6], 77%; in assay [7], 60%. For the same molecule, the inhibition at 1 µM in assay [8] was found to be 62%. The “α1 [%]” value in assay [3] is 69%.
